Measured values reported in ChEMBL document CHEMBL5465560, “Selectivity Literature for EUbOPEN Chemogenomic Library” (2024).
Residue numbers refer to the chain shown, from its start.

Experiments:
Conditions in all cases: at 1 µM
[1] = test system: T1, Receptor-type tyrosine-protein kinase FLT3 (Homo sapiens), P36888 [K663Q]; experiment: (§1) Selectivity interaction (KinomeScan (DiscoverX)) EUB0001619a FLT3
T1 sequence (whole entry): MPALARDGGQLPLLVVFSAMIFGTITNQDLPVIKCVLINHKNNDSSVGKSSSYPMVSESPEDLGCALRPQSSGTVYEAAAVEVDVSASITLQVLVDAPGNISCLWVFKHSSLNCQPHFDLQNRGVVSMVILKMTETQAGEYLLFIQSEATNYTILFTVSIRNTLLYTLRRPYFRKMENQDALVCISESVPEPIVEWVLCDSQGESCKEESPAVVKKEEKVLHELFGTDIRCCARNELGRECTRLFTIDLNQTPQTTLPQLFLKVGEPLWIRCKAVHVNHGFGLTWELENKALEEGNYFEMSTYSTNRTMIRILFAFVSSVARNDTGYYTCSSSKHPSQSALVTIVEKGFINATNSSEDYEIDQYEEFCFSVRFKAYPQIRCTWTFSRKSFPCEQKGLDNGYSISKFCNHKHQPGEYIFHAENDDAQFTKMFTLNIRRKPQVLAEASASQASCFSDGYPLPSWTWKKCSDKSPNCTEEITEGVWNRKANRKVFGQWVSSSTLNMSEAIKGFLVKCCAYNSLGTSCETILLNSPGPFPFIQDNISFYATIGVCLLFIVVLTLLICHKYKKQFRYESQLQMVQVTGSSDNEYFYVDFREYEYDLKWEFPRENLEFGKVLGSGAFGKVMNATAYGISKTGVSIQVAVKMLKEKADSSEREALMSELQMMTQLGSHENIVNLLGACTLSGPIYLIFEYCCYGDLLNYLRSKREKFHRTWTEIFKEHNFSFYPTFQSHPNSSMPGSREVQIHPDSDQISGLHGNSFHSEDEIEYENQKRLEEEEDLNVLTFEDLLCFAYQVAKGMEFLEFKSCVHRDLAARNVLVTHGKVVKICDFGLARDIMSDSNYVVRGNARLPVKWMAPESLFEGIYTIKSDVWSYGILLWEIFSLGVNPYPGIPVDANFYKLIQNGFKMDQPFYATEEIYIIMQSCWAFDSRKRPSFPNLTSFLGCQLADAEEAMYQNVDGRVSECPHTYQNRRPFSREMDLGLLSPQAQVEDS

[2] = test system: T2, Receptor-type tyrosine-protein kinase FLT3 (Homo sapiens), P36888 [D835H]; experiment: as §1
T2 sequence (whole entry): T1 sequence (whole entry) with Q663K, D835H

[3] = test system: T3, Receptor-type tyrosine-protein kinase FLT3 (Homo sapiens), P36888 [N841I]; experiment: as §1
T3 sequence (whole entry): T1 sequence (whole entry) with Q663K, N841I

[4] = biological target: Receptor-type tyrosine-protein kinase FLT3 (Homo sapiens) (UniProt P36888); experiment: as §1
[5] = test system: Receptor-type tyrosine-protein kinase FLT3 (Homo sapiens), P36888 [UNDEFINED MUTATION]; experiment: as §1

N#Cc1cccc(-c2c[nH]c3ncnc(N4CCOCC4)c23)c1
% of control [1]: 71% | % of control [2]: 72% | % of control [3]: 100% | % of control [4]: 89% | % of control [5]: 100%
